From PubChem BioAssay AID1259407 (Chemical Carcinogenesis Research Information System (CCRIS), 2018)
Activity calls are given as the source filed them. No rule for the calls is given here.

Test system: CCRIS mutagenicity, Ames/micronucleus/aberration tests
Test: CCRIS mutagenicity studies
[1] = Test System: AMES SALMONELLA TYPHIMURIUM, Strain/Indicator: TA97, Metabolic Activation: NONE, Method: STANDARD PLATE
[2] = Test System: AMES SALMONELLA TYPHIMURIUM, Strain/Indicator: TA98, Metabolic Activation: NONE, Method: STANDARD PLATE
[3] = Test System: AMES SALMONELLA TYPHIMURIUM, Strain/Indicator: TA100, Metabolic Activation: NONE, Method: STANDARD PLATE
[4] = Test System: AMES SALMONELLA TYPHIMURIUM, Strain/Indicator: TA1538, Metabolic Activation: NONE, Method: STANDARD PLATE
[5] = Test System: AMES SALMONELLA TYPHIMURIUM, Strain/Indicator: TA98, Metabolic Activation: RAT, LIVER, S-9, AROCLOR 1254, Method: STANDARD PLATE
[6] = Test System: AMES SALMONELLA TYPHIMURIUM, Strain/Indicator: TA100, Metabolic Activation: RAT, LIVER, S-9, AROCLOR 1254, Method: STANDARD PLATE

SMILES: CN(C)N=Nc1ccc(Cl)cc1
- mutagenic call (Test System: AMES SALMONELLA TYPHIMURIUM, Strain/Indicator: G46, Metabolic Activation: RAT, LIVER, S-9, PHENOBARBITAL, Method: STANDARD PLATE): active; positive
- mutagenic call (Test System: AMES SALMONELLA TYPHIMURIUM, Strain/Indicator: TA92, Metabolic Activation: MOUSE, LIVER, S-9, POLYCHLORINATED BIPHENYLS, Method: PREINCUBATION): inactive; negative
- mutagenic call (Test System: AMES SALMONELLA TYPHIMURIUM, Strain/Indicator: TA92, Metabolic Activation: MOUSE, LIVER, S-9, POLYCHLORINATED BIPHENYLS, Method: STANDARD PLATE): inactive; negative
- mutagenic call (Test System: AMES SALMONELLA TYPHIMURIUM, Strain/Indicator: TA92, Metabolic Activation: NONE, Method: STANDARD PLATE): inactive; negative
- mutagenic call (Test System: AMES SALMONELLA TYPHIMURIUM, Strain/Indicator: TA97, Metabolic Activation: MOUSE, LIVER, S-9, POLYCHLORINATED BIPHENYLS, Method: PREINCUBATION): active; positive
- mutagenic call (Test System: AMES SALMONELLA TYPHIMURIUM, Strain/Indicator: TA97, Metabolic Activation: MOUSE, LIVER, S-9, POLYCHLORINATED BIPHENYLS, Method: STANDARD PLATE): active; positive
- mutagenic call [1]: inactive; negative
- mutagenic call (Test System: AMES SALMONELLA TYPHIMURIUM, Strain/Indicator: TA98, Metabolic Activation: MOUSE, LIVER, S-9, POLYCHLORINATED BIPHENYLS, Method: PREINCUBATION): active; positive
- mutagenic call (Test System: AMES SALMONELLA TYPHIMURIUM, Strain/Indicator: TA98, Metabolic Activation: MOUSE, LIVER, S-9, POLYCHLORINATED BIPHENYLS, Method: STANDARD PLATE): active; positive
- mutagenic call [2]: active; positive
- mutagenic call (Test System: AMES SALMONELLA TYPHIMURIUM, Strain/Indicator: TA100, Metabolic Activation: MOUSE, LIVER, S-9, POLYCHLORINATED BIPHENYLS, Method: PREINCUBATION): active; positive
- mutagenic call (Test System: AMES SALMONELLA TYPHIMURIUM, Strain/Indicator: TA100, Metabolic Activation: MOUSE, LIVER, S-9, POLYCHLORINATED BIPHENYLS, Method: STANDARD PLATE): inactive; negative
- mutagenic call [3]: inactive; negative
- mutagenic call (Test System: AMES SALMONELLA TYPHIMURIUM, Strain/Indicator: TA1535, Metabolic Activation: MOUSE, LIVER, S-9, POLYCHLORINATED BIPHENYLS, Method: PREINCUBATION): active; positive
- mutagenic call (Test System: AMES SALMONELLA TYPHIMURIUM, Strain/Indicator: TA1535, Metabolic Activation: MOUSE, LIVER, S-9, POLYCHLORINATED BIPHENYLS, Method: STANDARD PLATE): inactive; negative
- mutagenic call (Test System: AMES SALMONELLA TYPHIMURIUM, Strain/Indicator: TA1535, Metabolic Activation: NONE, Method: STANDARD PLATE): inactive; negative
- mutagenic call (Test System: AMES SALMONELLA TYPHIMURIUM, Strain/Indicator: TA1537, Metabolic Activation: MOUSE, LIVER, S-9, POLYCHLORINATED BIPHENYLS, Method: PREINCUBATION): active; positive
- mutagenic call (Test System: AMES SALMONELLA TYPHIMURIUM, Strain/Indicator: TA1537, Metabolic Activation: MOUSE, LIVER, S-9, POLYCHLORINATED BIPHENYLS, Method: STANDARD PLATE): active; positive
- mutagenic call (Test System: AMES SALMONELLA TYPHIMURIUM, Strain/Indicator: TA1537, Metabolic Activation: NONE, Method: STANDARD PLATE): active; positive
- mutagenic call (Test System: AMES SALMONELLA TYPHIMURIUM, Strain/Indicator: TA1538, Metabolic Activation: MOUSE, LIVER, S-9, POLYCHLORINATED BIPHENYLS, Method: PREINCUBATION): active; positive
- mutagenic call (Test System: AMES SALMONELLA TYPHIMURIUM, Strain/Indicator: TA1538, Metabolic Activation: MOUSE, LIVER, S-9, POLYCHLORINATED BIPHENYLS, Method: STANDARD PLATE): active; positive
- mutagenic call [4]: inactive; negative

SMILES: Nc1ccc(-c2ccc(-c3ccc(-c4ccc(N)cc4)cc3)cc2)cc1
- mutagenic call [4]: inactive; negative
- mutagenic call (Test System: AMES SALMONELLA TYPHIMURIUM, Strain/Indicator: TA1538, Metabolic Activation: RAT, LIVER, S-9, AROCLOR 1254, Method: STANDARD PLATE): inactive; negative

SMILES: CC(=O)c1cc2c(cc1C)C(C)(C)C(C)C2(C)C (stereo not drawn)
- mutagenic call [1]: inactive; negative
- mutagenic call (Test System: AMES SALMONELLA TYPHIMURIUM, Strain/Indicator: TA97, Metabolic Activation: RAT LIVER S-9, AROCLOR 1254, Method: STANDARD PLATE): inactive; negative
- mutagenic call [2]: inactive; negative
- mutagenic call (Test System: AMES SALMONELLA TYPHIMURIUM, Strain/Indicator: TA98, Metabolic Activation: RAT LIVER S-9, AROCLOR 1254, Method: STANDARD PLATE): inactive; negative
- mutagenic call [3]: inactive; negative
- mutagenic call (Test System: AMES SALMONELLA TYPHIMURIUM, Strain/Indicator: TA100, Metabolic Activation: RAT LIVER S-9, AROCLOR 1254, Method: STANDARD PLATE): inactive; negative
- mutagenic call (Test System: AMES SALMONELLA TYPHIMURIUM, Strain/Indicator: TA102, Metabolic Activation: NONE, Method: STANDARD PLATE): inactive; negative
- mutagenic call (Test System: AMES SALMONELLA TYPHIMURIUM, Strain/Indicator: TA102, Metabolic Activation: RAT LIVER S-9, AROCLOR 1254, Method: STANDARD PLATE): inactive; negative

SMILES: c1ccc2c(OC[C@H]3CO3)cccc2c1
- mutagenic call [3]: active; positive

SMILES: Fc1ccc2ncccc2c1
- mutagenic call (End Point: In vitro chromosomal aberrations, Test System: Chinese hamster lung fibroblast cells (CHL/IU), Metabolic Activation: Rat, liver, S-9): active; positive, toxicity at 0.1 mg/ml. (information derived from a figure)
- mutagenic call (End Point: In vitro micronucleus, Test System: Chinese hamster lung fibroblast cells (CHL/IU), Metabolic Activation: Rat, liver, S-9): active; positive, cytotoxic at 0.2 mg/ml (information derived from a figure)
- mutagenic call (Test System: AMES SALMONELLA TYPHIMURIUM, Strain/Indicator: TA100, Metabolic Activation: RAT LIVER S-9, PHENOBARBITAL AND 5,6-BENZOFLAVONE, Method: PREINCUBATION): active; positive
- mutagenic call (Test System: AMES SALMONELLA TYPHIMURIUM, Strain/Indicator: TA100, Metabolic Activation: RAT, LIVER, S-9, AROCLOR 1254, Method: PREINCUBATION): active; positive
- mutagenic call (Test System: AMES SALMONELLA TYPHIMURIUM, Strain/Indicator: TA100, Metabolic Activation: RAT, LIVER, S-9, PHENOBARBITAL AND 5,6-BENZOFLAVONE, Method: PREINCUBATION): active; positive
- mutagenic call (Test System: AMES SALMONELLA TYPHIMURIUM, Strain/Indicator: TA100, Metabolic Activation: RAT, LIVER, S-9, PHENOBARBITAL AND 5,6-NAPHTHOFLAVONE, Method: PREINCUBATION): active; positive
- mutagenic call (Test System: UDS RODENT HEPATOCYTES, Strain/Indicator: THY INCORP (NON-S-PHASE), Metabolic Activation: NONE, Method: AUTORADIOGRAPHY): active; positive

SMILES: CCOC(=O)CC(=O)OCC
- mutagenic call (Test System: Ames Salmonella typhimurium, Strain/Indicator: TA98, Metabolic Activation: None, Method: Preincubation): inactive; negative
- mutagenic call (Test System: Ames Salmonella typhimurium, Strain/Indicator: TA98, Metabolic Activation: Rat, Liver, S-9, Phenobarbital and 5,6-benzoflavone, Method: Preincubation): inactive; negative
- mutagenic call (Test System: Ames Salmonella typhimurium, Strain/Indicator: TA100, Metabolic Activation: None, Method: Preincubation): inactive; negative
- mutagenic call (Test System: Ames Salmonella typhimurium, Strain/Indicator: TA100, Metabolic Activation: Rat, Liver, S-9, Phenobarbital and 5,6-benzoflavone, Method: Preincubation): inactive; negative
- mutagenic call (Test System: Ames Salmonella typhimurium, Strain/Indicator: TA1535, Metabolic Activation: None, Method: Preincubation): inactive; negative
- mutagenic call (Test System: Ames Salmonella typhimurium, Strain/Indicator: TA1535, Metabolic Activation: Rat, Liver, S-9, Phenobarbital and 5,6-benzoflavone, Method: Preincubation): inactive; negative
- mutagenic call (Test System: Ames Salmonella typhimurium, Strain/Indicator: TA1537, Metabolic Activation: None, Method: Preincubation): inactive; negative
- mutagenic call (Test System: Ames Salmonella typhimurium, Strain/Indicator: TA1537, Metabolic Activation: Rat, Liver, S-9, Phenobarbital and 5,6-benzoflavone, Method: Preincubation): inactive; negative
- mutagenic call (Test System: E. coli, Strain/Indicator: WP2uvrA/pKM101, Metabolic Activation: None, Method: Preincubation): inactive; negative
- mutagenic call (Test System: E. coli, Strain/Indicator: WP2uvrA/pKM101, Metabolic Activation: Rat, Liver, S-9, Phenobarbital and 5,6-benzoflavone, Method: Preincubation): inactive; negative

SMILES: C=CCc1ccccc1OCC(O)CNC(C)C (stereo not drawn)
- mutagenic call [2]: inactive; negative
- mutagenic call [5]: inactive; negative
- mutagenic call [3]: inactive; negative
- mutagenic call [6]: inactive; negative

SMILES: Cc1ccc(N(O)C=O)cc1
- mutagenic call [2]: inactive; negative
- mutagenic call [5]: active; positive
- mutagenic call [3]: inactive; negative
- mutagenic call [6]: active; positive
